Test results: US20090082304A1, “Methods of Treating Hematological Malignancies with Nucleoside Analog Drugs” (NORTHWESTERN UNIVERSITY, priority 2004, published 2009)

Columns and labels:
Type in all cases: cell-based
ATF-2 = assay: Immunoblot of phospho-ATF-2 in MM.1 S cells; details: 10 μM, by 2 hours
Description: (§1) 5×10^6 were cells treated with 10 μM 8-NH2-Ado for the indicated times and harvested. Cell pellets were washed with cold phosphate-buffered saline (PBS; 8.1 g NaCl, 1.14 g Na2HPO4, 0.22 g KCl, and 0.25 g/L KH2PO4) and incubated with lysis buffer (50 mM HEPES, 150 mM NaCl, 1.5 mM MgCl2, 1 mM EDTA pH 8.0, 100 mM NaFI, 10 mM Na Pyrophosphate, 500 μM PMSF, 0.5% Triton X-100, 10% glycerol) at 4° C. for one hour. Lysates were centrifuged at 4° C. for 1 minute at 9000×g, and the supernatants were collected and stored at −20° C. Protein concentration was determined by Bio-Rad protein assay (BioRad Laboratories, Hercules, Calif.). Protein, at a concentration of 30 μg, was mixed with sample buffer (125 mM Tris, pH 6.8, 4% SDS, 20% glycerol, 100 mM Dithiothreitol (DTT), and 0.05% bromophenol blue), and fractionated on a pre-cast 8-16% Tris-Glycine gel (Invitrogen/Novex, Carlsbad, Calif.). Proteins were then transferred to a Polyvinylidene Fluoride (PVDF) membrane (Immobilon-P, Millipore, Bedford, Mass.): Following protein transfer, membranes were blocked with 5% non-fat milk in PBS-T (PBS with 0.1% Tween), incubated with the primary antibody overnight at 4° C. and subsequently with horseradish peroxidase linked secondary antibody (Amersham, Arlington Heights, Ill.). […]

MEK1/2 = assay: Immunoblot of phospho-MEK1/2 in MM.1 S cells; details: 10 μM, 0-6 hours
Description: as §1

ERK1/2 = assay: Immunoblot of phospho-ERK1/2 in MM.1 S cells; details: 10 μM
Description: 5×10^6 were cells treated with 10 μM 8-NH2-Ado for the indicated times and harvested. Cell pellets were washed with cold phosphate-buffered saline (PBS; 8.1 g NaCl, 1.14 g Na2HPO4, 0.22 g KCl, and 0.25 g/L KH2PO4) and incubated with lysis buffer (50 mM HEPES, 150 mM NaCl, 1.5 mM MgCl2, 1 mM EDTA pH 8.0, 100 mM NaFI, 10 mM Na Pyrophosphate, 500 μM PMSF, 0.5% Triton X-100, 10% glycerol) at 4° C. for one hour. Lysates were centrifuged at 4° C. for 1 minute at 9000×g, and the supernatants were collected and stored at −20° C. Protein concentration was determined by Bio-Rad protein assay (BioRad Laboratories, Hercules, Calif.). Protein, at a concentration of 30 μg, was mixed with sample buffer (125 mM Tris, pH 6.8, 4% SDS, 20% glycerol, 100 mM Dithiothreitol (DTT), and 0.05% bromophenol blue), and fractionated on a pre-cast 8-16% Tris-Glycine gel (Invitrogen/Novex, Carlsbad, Calif.). Proteins were then transferred to a Polyvinylidene Fluoride (PVDF) membrane (Immobilon-P, Millipore, Bedford, Mass.): Following protein transfer, membranes were blocked with 5% non-fat milk in PBS-T (PBS with 0.1% Tween), incubated with the primary antibody overnight at 4° C. and subsequently with horseradish peroxidase linked secondary antibody (Amersham, Arlington Heights, Ill.). Blots were developed using ECL Plus Chemiluminescent Western Blotting Detection reagent (Amersham, Arlington Heights, Ill.) and the signal was visualized with X-ray film (Hyperfilm, Amersham, Arlington Heights, Ill.). For reprobing purposes, blots were stripped using Restore Western Blot Stripping Buffer from Pierce Biotechnology (Rockford, Ill.). Phospho-MKK3/6 (Ser189/207), phospho-p38 (Thr180/Tyr182), phospho-ATF-2 (Thr69/71), phospho-c-Raf (Ser259), phospho-MEK1/2 (Ser217/221), total MEK1/2, phospho-ERK1/2 (Thr202/Tyr204), total ERK1/2, phospho-p90RSK (Ser380), total RSK, phospho-PDK1 (Ser241), total PDKI, phospho-PTEN (Ser380), total PTEN, phospho-Akt (Ser473), total Akt, phospho-GSK-3β (Ser9), total GSK-3β, phospho-FKHRLI (Thr32)/-FKHR (Thr24), phospho-FKHR (Ser256) primary antibodies were obtained from Cell Signaling Technology (Beverly, Mass.). Total MKK3, total MKK6, total p38, total ATF-2, total c-Raf, total FKHR, total FKHRLI, phospho-JNK and total JNK were purchased from Santa Cruz Biotechnology (Santa Cruz, Calif.). Caspase 3, caspase 9, and PARP antibodies were obtained from Pharmingen (San Diego, Calif.) and anti-MKP1 from Upstate (Lake Placid, N.Y.). Anti-caspase 8 mouse serum was a generous gift of Dr. Marcus Peter (University of Chicago).
MM.1 S cells were exposed to 10 μM 8-NH2-Ado for 0, 0.5, 1, 2, 4 and 6 hours, after which cells were lysed as previously (Example 2). 30 μg of protein was separated by gel electrophoresis, transferred to PVDF membrane, and probed with phosphorylation-specific antibodies to MKK3/6, p38 MAPK, ATF-2, MEK1/2, ERK1/2, p90RSK, JNK1, PDK1, Akt, FKHRL1 and GSK-3β.
MM. I S cells were treated with 10 μM 8-chloro-adenosine for 0, 0.5, 1, 2, 4 or 6 hours or 10 μM of cytarabine, fludarabine, gemcitabine or 8-amino-adenosine for 4 hours. Cells were lysed as previously described and 30 μg of protein was separated by gel electrophoresis, transferred to PVDF membrane, and probed with phospho-p38 MAPK (Thr180/Tyr182) antibody.
MM.1 S cells were grown in dextrose-free media and treated with 2 μM Antimycin A, 5 mM 2-DOG, and varying concentrations of dextrose for 90 minutes. Cellular ATP levels were determined using triplicate samples in a luciferase based assay and are expressed here as a percentage of untreated control.

JNK = assay: Immunoblot of phospho-JNK in MM.1 S cells; details: 10 μM, 0-6 hours
Description: as §1

GSK-3β = assay: Immunoblot of phospho-GSK-3β in MM.1 S cells; details: 10 μM
Description: as §1

PTEN = assay: Immunoblot of PTEN (total and phospho) in MM.1 S cells; details: 10 μM, 0-6 hours
Description: as §1, with “Calif.).” for “Calif.). Proteins were then transferred to a Polyvinylidene Fluoride (PVDF) membrane (Immobilon-P, Millipore, Bedford, Mass.): Following protein transfer, membranes were blocked with 5% non-fat milk in PBS-T (PBS with 0.1% Tween), incubated with the primary antibody overnight at 4° C. and subsequently with horseradish peroxidase linked secondary antibody (Amersham, Arlington Heights, Ill.).”
In addition, the effect of 8-NH2-Ado treatment on PTEN, which encodes a key phosphatase involved in the negative regulation of the PI3K/Akt signaling pathway was assessed (FIG. 5B). […]

STAT proteins = assay: Phosphorylation status of STAT proteins
endogenous ATP = assay: Endogenous ATP pools
Description: MM.IS cells were grown in dextrose-free RPMI-1640 media (Invitrogen, Baltimore, Md.) supplemented with 10% fetal bovine serum, 2 mM glutamine, 100 units/ml penicillin, 100 μg/ml streptomycin and 2.5 μg/ml fungizone. Cellular ATP levels were manipulated by the addition of either antimycin (2 μM, a mitochondrial inhibitor) or 2-deoxy-D-glucose (2-DOG, 5 mM, an inhibitor of glycolysis) from Sigma (St. Louis, Mo.) with and without varying concentrations of dextrose. Six different metabolic conditions were examined: 1) antimycin without dextrose, 2) antimycin+0.25 mM dextrose, 3) antimycin+1 mM dextrose, 4) antimycin+10 mM dextrose, 5) 2-DOG without dextrose, 6) 2-DOG+10 mM dextrose. Control cells were not subjected to ATP depletion; 10 mM dextrose was added to dextrose-free RMPI-1640. Endogenous ATP was measured in a luciferase-based assay using the ATP Determination Kit from Molecular Probes (Eugene, Oreg.) and the levels corresponding to each treatment were normalized to untreated controls (20).

Q: Which “levels of phosphorylated ATF-2” value (ATF-2) does the source give for Nc1ncnc2c1nc(N)n2[C@@H]1O[C@H](CO)[C@@H](O)[C@H]1O [8-NH2-Ado, 8-amino-adenosine] here?
A: falling considerably

Q: What about the “phosphorylation levels of MEK1/2” value (MEK1/2) of the same molecule?
A: appear to increase

Q: What about the “phosphorylation of ERK1/2” value (ERK1/2; 4 hours, data not shown) of the same molecule?
A: dramatic loss of phosphorylation

Q: What about the “Phosphorylation of the ERK1/2 kinases” value (ERK1/2; by 30 minutes) of the same molecule?
A: decreases significantly

Q: And the “Phosphorylation of the ERK1/2 kinases” value (ERK1/2; by 2 hours)?
A: declines to negligible levels

Q: And the JNK phosphorylation (JNK)?
A: unaffected

Q: And the Phospho-OSK-3p levels (GSK-3β; by 2 hours)?
A: diminish

Q: And the Phospho-OSK-3p levels (GSK-3β; by 6 hours)?
A: negligible

Q: What about the “total and phospho-PTEN levels” value (PTEN) of the same molecule?
A: unaltered

Q: And the “phosphorylation status of the STAT proteins” value (STAT proteins)?
A: unaltered

Q: And the “endogenous ATP pools” value (endogenous ATP)?
A: dramatic shifts
